pIC50: −log10 of the molar value.
Tests used:
HIF-2α [1] = target: T1, HIF-2α (Homo sapiens, UniProt Q99814); assay: HIF-2α Luciferase Reporter Assay (serum free) in HIF-Luc-786-0 cells; assay type: cell-based; conditions: Opti-MEM, 786-0 reporter cells, 20 hours incubation
Method: (§1) Generation of HIF-2α Luciferase 786-0 Cell Line:
(§2) Stable cell lines were generated by transducing 786-0 cells (ATCC, CRL-1932) with Cignal Lenti HIF Luc Reporter lentivirus (CLS-007L, Qiagen) according to the manufacturer's guidelines. In brief, 0.3×10^6 786-0 cells were transduced with lentivirus at a multiplicity of infection (MOI) of 25 for 24 hours. After transduction, cells were replenished with fresh RPMI 1640 Medium (Cat. No. 11875085, Thermo Fisher) supplemented with 10% FBS (Cat. No. A3160502, Gibco), 2 mM GlutaMAX™ (Cat. No. 35050-061, Invitrogen) and 100 units of penicillin and 100 μg of streptomycin/mL (Cat. No 15070063, Thermo Fisher) for another 24 hours. Antibiotic selection was performed in cell media containing 4 μg/mL of puromycin. After 7 days of antibiotic selection, stable pools of surviving cells were expanded and used in a luciferase reporter assay.
HIF-2α Luciferase Reporter Assay (Serum Free):
On day one, 20 uL of HIF-Luc-786-0 cells in Opti-MEM™ (Cat. No. 31985088, Thermo Fisher) were seeded into each well of a 384 well white opaque plate (Corning 3570) and incubated at 37° C. and 5% CO2. Twenty microliters of 2× test compounds in Opti-MEM™ were added to cells after 4 hours of incubation. Final assay conditions comprised 20,000 cells per well in 1% DMSO with test compound concentrations ranging from 50 uM to 0 uM. After 20 hours incubation at 37° C. and 5% CO2, luciferase activity was determined using ONE-Glo™ Luciferase Assay Reagent (E6110, Promega) following the manufacture's recommended procedure. Briefly, 40 uL of ONE-Glo™ luciferase reagents were added to each well and luciferase signals were measured using an Envision 2102 Multilabel Reader. Percentage maximum activity in each test well was calculated based on DMSO (maximum activity) and no cell control wells (baseline activity). The IC50 values of the test compounds were determined from compound dose response curves fitted using a standard four parameter fit equation.

HIF-2α [2] = target: T1, HIF-2α; assay: HIF-2α Luciferase Reporter Assay (serum), HRE-luciferase 786-0 cells in 100% human serum; assay type: cell-based; conditions: for pIC50: 100% human serum, 786-0 reporter cells, overnight incubation, read-out: Serum Potency; for Serum Shift (approximate): ratio of IC50 in 100% serum to IC50 in serum free conditions
Method: as §1, §2
HIF-2α Luciferase Reporter Assay (Serum):
An HRE-luciferase stable reporter 786-0 cell line was maintained in active culture using RPMI 1640 (GIBCO) media supplemented with 1% penicillin-streptomycin, 1% GlutaMAX™, 10% FBS-One Shot (GIBCO) and 4 ug/ml of puromycin (Invitrogen). On the day of the assay, cells were harvested using StemPro™ Accutase™ cell dissociation reagent (GIBCO) and resuspended at 1.5 million cells per milliliter in Opti-MEM™ (GIBCO). 20 ul/well of the resuspended cells were dispensed into a 384 white tissue culture-treated microplate (Corning) and allowed to incubate at 37° C., 5% CO2 for 3 hours. Compounds were prepared by dispensing 0.8 ul of compound in 100% DMSO into a Greiner plate containing 40 ul/well of 100% human serum (Bioreclamation IVT). After 3 hours, media was removed via centrifugation at 500 RPM for 30 seconds and 30 ul/well of compound diluted in human serum was added. The plate was incubated overnight at 37° C., 5% CO2. The following day, ONE-Glo™ was prepared per vendors instructions. The cell plate was removed from the incubator and the human serum was removed from the plate using centrifugation at 500 RPM for 30 seconds. Following the removal of human serum, 40 ul/well of room temperature Opti-MEM™ was added to the plate and allowed to equilibrate to room temperature for 2 hours. 40 ul/well of ONE-Glo™ reagent was added and allowed to incubate for 10 minutes before reading the luminescence signal on the Envision (PerkinElmer). Data was analyzed using 4-parameter logistic equation to generate IC50.

T1 sequence (Q99814 whole entry): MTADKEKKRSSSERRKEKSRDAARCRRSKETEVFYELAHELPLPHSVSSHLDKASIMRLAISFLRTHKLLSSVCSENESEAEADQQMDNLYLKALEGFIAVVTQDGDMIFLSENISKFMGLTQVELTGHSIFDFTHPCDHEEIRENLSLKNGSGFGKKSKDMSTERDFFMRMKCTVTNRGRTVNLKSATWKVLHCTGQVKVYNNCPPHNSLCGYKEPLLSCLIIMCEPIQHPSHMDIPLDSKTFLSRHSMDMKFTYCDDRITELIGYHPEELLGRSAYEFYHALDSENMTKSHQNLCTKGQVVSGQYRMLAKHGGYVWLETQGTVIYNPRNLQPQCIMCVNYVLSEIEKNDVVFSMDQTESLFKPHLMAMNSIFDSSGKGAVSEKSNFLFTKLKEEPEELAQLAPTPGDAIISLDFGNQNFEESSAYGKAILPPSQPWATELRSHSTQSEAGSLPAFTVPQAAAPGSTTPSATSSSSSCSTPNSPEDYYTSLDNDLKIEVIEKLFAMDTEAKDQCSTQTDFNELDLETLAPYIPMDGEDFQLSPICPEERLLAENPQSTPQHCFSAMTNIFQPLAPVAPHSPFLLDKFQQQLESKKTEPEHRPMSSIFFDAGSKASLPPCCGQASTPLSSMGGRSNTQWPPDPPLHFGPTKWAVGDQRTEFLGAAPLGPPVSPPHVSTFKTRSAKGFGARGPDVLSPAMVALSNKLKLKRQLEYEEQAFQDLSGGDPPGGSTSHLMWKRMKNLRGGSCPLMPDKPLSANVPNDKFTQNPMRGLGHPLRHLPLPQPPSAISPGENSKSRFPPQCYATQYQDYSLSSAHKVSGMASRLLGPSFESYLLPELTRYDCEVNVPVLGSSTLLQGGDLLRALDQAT

pIC50 (HIF-2α [1])	pIC50 (HIF-2α [2])	Serum Shift (approximate) (HIF-2α [2])	Structure (SMILES)
6.00 to 7.00	6.00 to 7.00	1	C[C@H](OC(F)F)[C@H]1C[C@H](n2nc(C(F)(F)F)c3c2CC(F)(F)[C@H]3O)C1 [Example 106, (4S)-1-[3-[(1S)-1-(difluoromethoxy)ethyl]cyclobutyl]-5,5-difluoro-3-(trifluoromethyl)-4,6-dihydrocyclopenta[c]pyrazol-4-ol]
> 7.00	< 6.00	23	O[C@H]1c2c(C(F)(F)F)nn(C3CCO[C@H](C(F)(F)F)C3)c2CC1(F)F (single isomer, unassigned) [94/95 DIAST-2]
> 7.00	< 6.00	17	O[C@H]1c2c(C(F)(F)F)nn([C@@H]3CCC[C@H](OC(F)F)C3)c2CC1(F)F (racemic) [Example 112, (4S)-1-[(1R,3S)-3-(difluoromethoxy)cyclohexyl]-5,5-difluoro-3-(trifluoromethyl)-1H,4H,5H,6H-cyclopenta[c]pyrazol-4-ol and (4S)-1-[(1S,3R)-3-(difluoromethoxy)cyclohexyl]-5,5-difluoro-3-(trifluoromethyl)-1H,4H,5H,6H-cyclopenta[c]pyrazol-4-ol]
6.00 to 7.00	6.00 to 7.00	1	CC(C#N)CCn1nc(C(F)(F)F)c2c1CC(F)(F)[C@H]2O (stereo partly drawn) [Example 55, 4-[(4S)-5,5-difluoro-4-hydroxy-3-(trifluoromethyl)-4,6-dihydrocyclopenta[c]pyrazol-1-yl]-2-methylbutanenitrile]
> 7.00	< 6.00	10	O[C@H]1c2c(C(F)(F)F)nn(CCc3ccco3)c2CC1(F)F [Example 77, (4S)-5,5-difluoro-1-[2-(furan-2-yl)ethyl]-3-(trifluoromethyl)-1H,4H,5H,6H-cyclopenta[c]pyrazol-4-ol]
6.00 to 7.00	< 6.00	49	O[C@H]1c2c(C(F)(F)F)nn([C@H]3CCC[C@H](C(F)(F)F)C3)c2CC1(F)F [Example 81, (4S)-5,5-difluoro-3-(trifluoromethyl)-1-[(1S,3S)-3-(trifluoromethyl)cyclohexyl]-1H,4H,5H,6H-cyclopenta[c]pyrazol-4-ol]
> 7.00	< 6.00	19	O[C@H]1c2c(C(F)(F)F)nn(C3CCC[C@H](OC(F)F)C3)c2CC1(F)F (mixture of isomers) [Example 108, (4S)-1-[(1S,3S)-3-(difluoromethoxy)cyclohexyl]-5,5-difluoro-3-(trifluoromethyl)-1H,4H,5H,6H-cyclopenta[c]pyrazol-4-ol and (4S)-1-[(1R,3R)-3-(difluoromethoxy)cyclohexyl]-5,5-difluoro-3-(trifluoromethyl)-1H,4H,5H,6H-cyclopenta[c]pyrazol-4-ol]
> 7.00	6.00 to 7.00	12	CO[C@H](CCn1nc(C(F)(F)F)c2c1[C@@H](F)C(F)(F)[C@H]2O)C(F)(F)F (single isomer, unassigned) [148/149 DIAST-2]
6.00 to 7.00	< 6.00	18	O[C@H]1c2c(C(F)(F)F)nn(CCCOC(F)(F)F)c2[C@@H](F)CC1(F)F (single isomer, unassigned) [129/130 DIAST-1]
6.00 to 7.00	6.00 to 7.00	3	O[C@H]1c2c(C(F)(F)F)nn(CCCC(F)(F)F)c2CC[C@H]1F [Example 51, (4S,5R)-5-fluoro-1-(4,4,4-trifluorobutyl)-3-(trifluoromethyl)-4,5,6,7-tetrahydroindazol-4-ol]
> 7.00	6.00 to 7.00	6	O[C@H]1c2c(C(F)(F)F)nn([C@H]3C[C@@H](F)[C@@H](F)[C@@H](F)C3)c2CC1(F)F (mixture of isomers) [Example 88, (4S)-5,5-difluoro-1-[(3R,5S)-3,4,5-trifluorocyclohexyl]-3-(trifluoromethyl)-4,6-dihydrocyclopenta[c]pyrazol-4-ol]
6.00 to 7.00	< 6.00	20	O[C@H]1c2c(C(F)(F)F)nn([C@H]3C[C@H](COC(F)F)C3)c2CCC1(F)F [Example 104, (4S)-1-[3-(difluoromethoxymethyl)cyclobutyl]-5,5-difluoro-3-(trifluoromethyl)-6,7-dihydro-4H-indazol-4-ol]
6.00 to 7.00	6.00 to 7.00	2	CS(=O)(=O)CCn1nc(C(F)(F)F)c2c1CC(F)(F)[C@H]2O [Example 56, (4S)-5,5-difluoro-1-(2-methylsulfonylethyl)-3-(trifluoromethyl)-4,6-dihydrocyclopenta[c]pyrazol-4-ol]
> 7.00	6.00 to 7.00	6	O[C@H]1c2c(C(F)(F)F)nn(C3CC4(C3)CC(F)(F)C4)c2CC1(F)F [Example 66, (4S)-1-{6,6-difluorospiro[3.3]heptan-2-yl}-5,5-difluoro-3-(trifluoromethyl)-4,6-dihydrocyclopenta[c]pyrazol-4-ol]
> 7.00	6.00 to 7.00	8	O[C@H]1c2c(C(F)(F)F)nn([C@@H]3CC[C@@H](F)[C@@H](F)C3)c2CC1(F)F (single isomer, unassigned) [72/73 DIAST-1]
6.00 to 7.00	< 6.00	9	O[C@H]1c2c(C(F)(F)F)nn([C@H]3C[C@@H]4[C@H](C3)C4(F)F)c2CC1(F)F (single isomer, unassigned) [125/126 DIAST-1]
< 6.00	–	–	O[C@H]1c2c(C(F)(F)F)nn(C3CCCCC3)c2CCC1(F)F [Example 35, (4S)-1-cyclohexyl-5,5-difluoro-3-(trifluoromethyl)-6,7-dihydro-4H-indazol-4-ol]
< 6.00	–	–	O[C@H]1c2c(C(F)(F)F)nn(CCC3CCCO3)c2CCC1(F)F (stereo partly drawn) [Example 34, (4S)-5,5-difluoro-1-[2-(oxolan-2-yl)ethyl]-3-(trifluoromethyl)-6,7-dihydro-4H-indazol-4-ol]

Structure (SMILES)	pIC50 (HIF-2α [1])	pIC50 (HIF-2α [2])	Serum Shift (approximate) (HIF-2α [2])
O[C@H]1c2c(C(F)(F)F)nn(-c3ccc(Cl)cc3)c2CC1(F)F [Example 116, (4S)-1-(4-chlorophenyl)-5,5-difluoro-3-(trifluoromethyl)-4,6-dihydrocyclopenta[c]pyrazol-4-ol]	> 7.00	< 6.00	73
O[C@H]1c2c(C(F)(F)F)nn([C@@H]3CCC(F)(F)[C@@H](F)C3)c2CC1(F)F [Example 121, (4S)-5,5-difluoro-1-[(1R,3S)-3,4,4-trifluorocyclohexyl]-3-(trifluoromethyl)-4,6-dihydrocyclopenta[c]pyrazol-4-ol]	> 7.00	< 6.00	11
CO[C@H]1C[C@@H](n2nc(C(F)(F)F)c3c2CC(F)(F)[C@H]3O)CCC1(F)F (racemic) [Example 109, (4S)-1-[(1S,3S)-4,4-difluoro-3-methoxycyclohexyl]-5,5-difluoro-3-(trifluoromethyl)-1H,4H,5H,6H-cyclopenta[c]pyrazol-4-ol and (4S)-1-[(1R,3R)-4,4-difluoro-3-methoxycyclohexyl]-5,5-difluoro-3-(trifluoromethyl)-1H,4H,5H,6H-cyclopenta[c]pyrazol-4-ol]	6.00 to 7.00	6.00 to 7.00	4
CO[C@H](CCn1nc(C(F)(F)F)c2c1[C@@H](F)[C@@H](F)[C@H]2O)C(F)(F)F [Example 131, (4S,5S,6R)-5,6-difluoro-1-[(3R)-4,4,4-trifluoro-3-methoxybutyl]-3-(trifluoromethyl)-5,6-dihydro-4H-cyclopenta[c]pyrazol-4-ol]	> 7.00	> 7.00	2

From US12071411B2, “Inhibitors of HIF-2α and methods of use thereof” (ARCUS BIOSCIENCES, INC., priority 2021, dated 2024)
